This is an account of results in US20170050936A1, “CERTAIN CHEMICAL ENTITIES, COMPOSITIONS, AND METHODS” (NEUPHARMA, INC., priority 2013, published 2017).

SMILES strings stand for the structures. Some results are limits rather than exact numbers.

By IC50 is commonly meant the concentration that gives 50% inhibition.

The target of one test is T1, EGFR (ErbB1) (Homo sapiens, UniProt P00533).
T1 construct: purchased Invitrogen
Kind of test: Z'-LYTE kinase inhibition assay, EGFR. Type of test: biochemical. As to conditions: read-out: IC50 against EGFR. The procedure:
Inhibitory activities of compounds against BTK, EGFR and EGFR mutants (EGFR L858R, EGFR T790M, EGFR L858R/T790M), FGFR1, FGFR2, JAK2, JAK3 and KDR were measured by Invitrogen using Z'-LYTE® Method as briefly described in the following. Test Compounds are screened in 1% DMSO (final) in the well. For 10 point titrations, 3-fold serial dilutions are conducted from the starting concentration. All ATP Solutions are diluted to a 4× working concentration in Kinase Buffer (50 mM HEPES pH 7.5, 0.01% BRIJ-35, 10 mM MgCl2, 1 mM EGTA). Peptide/Kinase Mixtures are diluted to a 2× working concentration in the appropriate Kinase Buffers as described below. (i) Peptide/Kinase Mixtures for measurement of EGFR (ErbB1): The 2× EGFR (ErbB1)/[…] mixture is prepared in 50 mM HEPES pH 7.5, 0.01% BRIJ-35, 10 mM MgCl2, 4 mM MnCl2, 1 mM EGTA, 2 mM DTT. The final 10 μL Kinase Reaction consists of 1.1-5.25 ng EGFR (ErbB1) and 2 μM […] in 50 mM HEPES pH 7.5, 0.01% BRIJ-35, 10 mM MgCl2, 2 mM MnCl2, 1 mM EGTA, 1 mM DTT. After the 1 hour Kinase Reaction incubation, 5 μL of a 1:64 dilution of Development Reagent B is added. Reaction starts by 30-second shaking of mixture consisting of 2.5 μL 4× test compound, 5 μL 2× kinase reaction mixture and 2.5 μL 4× ATP Solution on Bar-coded Corning, low volume NBS, black 384-well plate (Corning Cat. #3676). Then the mixture is incubated for 60-minute at room temperature for the kinase reaction, followed by addition of 5 μL of a 1:1024 dilution of development reagent A and 30-second plate shake. The mixture is then incubated for another 60-minute at room temperature for development reaction. Finally fluorescence is read by plate reader. To determine IC50 of a compound against EGFR, EGFR mutant and other kinases, a series of concentrations of the compound were tested for the inhibition.

In the next test the target is T2, FGFR1 (Homo sapiens, UniProt P11362).
T2 construct: purchased Invitrogen
T2 sequence (P11362 22-822): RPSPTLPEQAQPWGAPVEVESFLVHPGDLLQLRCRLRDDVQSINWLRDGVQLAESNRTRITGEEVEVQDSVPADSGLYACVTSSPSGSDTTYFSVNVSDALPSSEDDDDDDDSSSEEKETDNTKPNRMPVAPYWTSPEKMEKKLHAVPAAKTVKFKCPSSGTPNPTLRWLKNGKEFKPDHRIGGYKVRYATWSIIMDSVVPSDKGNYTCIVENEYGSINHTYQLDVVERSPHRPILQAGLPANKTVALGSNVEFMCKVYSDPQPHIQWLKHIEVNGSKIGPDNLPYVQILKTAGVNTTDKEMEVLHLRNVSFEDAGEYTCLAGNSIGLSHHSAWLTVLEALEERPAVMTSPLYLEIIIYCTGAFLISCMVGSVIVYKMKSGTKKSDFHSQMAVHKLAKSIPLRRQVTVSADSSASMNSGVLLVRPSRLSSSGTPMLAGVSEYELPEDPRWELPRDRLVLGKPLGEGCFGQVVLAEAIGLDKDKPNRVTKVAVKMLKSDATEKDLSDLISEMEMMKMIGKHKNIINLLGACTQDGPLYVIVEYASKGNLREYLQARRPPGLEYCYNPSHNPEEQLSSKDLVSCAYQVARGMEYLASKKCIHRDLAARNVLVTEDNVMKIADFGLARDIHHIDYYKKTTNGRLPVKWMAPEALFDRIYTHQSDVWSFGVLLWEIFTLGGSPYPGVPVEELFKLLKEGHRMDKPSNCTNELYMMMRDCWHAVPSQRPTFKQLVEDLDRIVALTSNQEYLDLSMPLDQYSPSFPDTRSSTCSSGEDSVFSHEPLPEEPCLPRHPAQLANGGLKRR
The test is described as follows: Z'-LYTE kinase inhibition assay, FGFR1. The class given is biochemical. As to conditions: read-out: IC50 against FGFR1. As to the method:
(§1) Inhibitory activities of compounds against BTK, EGFR and EGFR mutants (EGFR L858R, EGFR T790M, EGFR L858R/T790M), FGFR1, FGFR2, JAK2, JAK3 and KDR were measured by Invitrogen using Z′-LYTE® Method as briefly described in the following.
(§2) Test Compounds are screened in 1% DMSO (final) in the well. For 10 point titrations, 3-fold serial dilutions are conducted from the starting concentration. All ATP Solutions are diluted to a 4× working concentration in Kinase Buffer (50 mM HEPES pH 7.5, 0.01% BRIJ-35, 10 mM MgCl2, 1 mM EGTA). Peptide/Kinase Mixtures are diluted to a 2× working concentration in the appropriate Kinase Buffers as described below.
(v) Peptide/Kinase Mixtures for measurement of FGFR1:
The 2× FGFR1/Tyr 04 mixture is prepared in 50 mM HEPES pH 7.5, 0.01% BRIJ-35, 10 mM MgCl2, 4 mM MnCl2, 1 mM EGTA, 2 mM DTT. The final 10 μL Kinase Reaction consists of 0.41-3.5 ng FGFR1 and 2 μM Tyr 04 in 50 mM HEPES pH 7.5, 0.01% BRIJ-35, 10 mM MgCl2, 2 mM MnCl2, 1 mM EGTA, 1 mM DTT. After the 1 hour Kinase Reaction incubation, 5 μL of a 1:64 dilution of Development Reagent B is added.
(§3) Reaction starts by 30-second shaking of mixture consisting of 2.5 μL 4× test compound, 5 μL 2× kinase reaction mixture and 2.5 μL 4× ATP Solution on Bar-coded Corning, low volume NBS, black 384-well plate (Corning Cat. #3676). Then the mixture is incubated for 60-minute at room temperature for the kinase reaction, followed by addition of 5 μL of a 1:1024 dilution of development reagent A and 30-second plate shake. The mixture is then incubated for another 60-minute at room temperature for development reaction. Finally fluorescence is read by plate reader.
(§4) To determine IC50 of a compound against EGFR, EGFR mutant and other kinases, a series of concentrations of the compound were tested for the inhibition. […] The scale utilized in Table 4 is as follows: +++ less than 100 nM, ++100-500 nM and + greater than 500 nM.

For another test, the target named is T3, KDR (VEGFR2) (Homo sapiens, UniProt P35968).
T3 construct: purchased Invitrogen
T3 sequence (P35968 20-1356): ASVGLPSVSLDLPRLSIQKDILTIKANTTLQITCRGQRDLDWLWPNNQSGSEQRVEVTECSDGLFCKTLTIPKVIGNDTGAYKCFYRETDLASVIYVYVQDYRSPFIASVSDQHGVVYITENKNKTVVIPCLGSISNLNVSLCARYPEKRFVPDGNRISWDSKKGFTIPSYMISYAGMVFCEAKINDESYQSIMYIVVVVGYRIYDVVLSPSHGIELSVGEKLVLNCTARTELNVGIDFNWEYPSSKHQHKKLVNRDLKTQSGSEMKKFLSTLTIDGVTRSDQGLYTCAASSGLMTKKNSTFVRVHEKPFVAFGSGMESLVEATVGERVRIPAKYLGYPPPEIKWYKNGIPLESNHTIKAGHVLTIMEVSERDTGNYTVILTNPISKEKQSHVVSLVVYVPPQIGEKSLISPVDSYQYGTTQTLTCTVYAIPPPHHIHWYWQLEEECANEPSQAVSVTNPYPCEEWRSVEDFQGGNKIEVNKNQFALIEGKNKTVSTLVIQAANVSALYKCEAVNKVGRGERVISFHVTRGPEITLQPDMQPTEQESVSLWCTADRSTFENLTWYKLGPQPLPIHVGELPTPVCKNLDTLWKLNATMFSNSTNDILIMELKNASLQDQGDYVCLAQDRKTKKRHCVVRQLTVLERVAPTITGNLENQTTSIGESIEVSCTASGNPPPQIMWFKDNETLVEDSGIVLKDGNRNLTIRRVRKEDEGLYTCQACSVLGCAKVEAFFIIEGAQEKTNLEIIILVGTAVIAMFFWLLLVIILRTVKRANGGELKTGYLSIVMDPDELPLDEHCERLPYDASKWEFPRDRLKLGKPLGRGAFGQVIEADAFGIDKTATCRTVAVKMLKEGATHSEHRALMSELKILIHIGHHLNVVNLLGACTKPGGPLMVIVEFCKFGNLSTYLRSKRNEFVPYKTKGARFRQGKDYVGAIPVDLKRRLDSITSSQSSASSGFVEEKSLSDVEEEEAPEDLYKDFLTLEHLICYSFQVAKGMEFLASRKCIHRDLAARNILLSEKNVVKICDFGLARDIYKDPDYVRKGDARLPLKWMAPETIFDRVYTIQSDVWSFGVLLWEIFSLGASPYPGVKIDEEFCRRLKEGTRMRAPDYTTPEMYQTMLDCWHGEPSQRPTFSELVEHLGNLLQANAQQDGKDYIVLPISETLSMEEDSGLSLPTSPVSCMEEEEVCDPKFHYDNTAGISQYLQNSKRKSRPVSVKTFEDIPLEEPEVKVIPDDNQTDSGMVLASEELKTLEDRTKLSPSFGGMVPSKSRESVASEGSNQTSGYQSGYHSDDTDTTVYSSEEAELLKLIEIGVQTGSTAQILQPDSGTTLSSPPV
The test is described as follows: Z'-LYTE kinase inhibition assay, KDR. Type of test: biochemical. As to conditions: read-out: IC50 against KDR. The procedure: as §1, §2
(v) Peptide/Kinase Mixtures for measurement of KDR (VEGFR2):
The 2× KDR (VEGFR2)/Tyr 01 mixture is prepared in 50 mM HEPES pH 7.5, 0.01% BRIJ-35, 10 mM MgCl2, 1 mM EGTA. The final 10 μL Kinase Reaction consists of 0.5-11.7 ng KDR (VEGFR2) and 2 μM Tyr Olin 50 mM HEPES pH 7.5, 0.01% BRIJ-35, 10 mM MgCl2, 1 mM EGTA. After the 1 hour Kinase Reaction incubation, 5 μL of a 1:256 dilution of Development Reagent B is added.
as §3, §4

The next test addresses T4, FGFR2 (Homo sapiens, UniProt P21802).
T4 construct: purchased Invitrogen
Kind of test: Z'-LYTE kinase inhibition assay, FGFR2. Type of test: biochemical. As to conditions: read-out: IC50 against FGFR2. The procedure: as §1, §2
(v) Peptide/Kinase Mixtures for measurement of FGFR2:
The 2× FGFR2/Tyr 04 mixture is prepared in 50 mM HEPES pH 7.5, 0.01% BRIJ-35, 10 mM MgCl2, 4 mM MnCl2, 1 mM EGTA, 2 mM DTT. The final 10 μL Kinase Reaction consists of 0.19-2.36 ng FGFR2 and 2 μM Tyr 04 in 50 mM HEPES pH 7.5, 0.01% BRIJ-35, 10 mM MgCl2, 2 mM MnCl2, 1 mM EGTA, 1 mM DTT. After the 1 hour Kinase Reaction incubation, 5 μL of a 1:64 dilution of Development Reagent B is added.
as §3, §4

The test system of the next test is H1299 cells. The test is described as follows: Inhibition of cancer cell growth, MTT assay, H1299. As to conditions: Homo sapiens, NCI-H1299, 72 h, read-out: IC50 in H1299 cells. (Formazan colour is commonly taken as a measure of viable cells.)

T4 sequence (P21802 22-821): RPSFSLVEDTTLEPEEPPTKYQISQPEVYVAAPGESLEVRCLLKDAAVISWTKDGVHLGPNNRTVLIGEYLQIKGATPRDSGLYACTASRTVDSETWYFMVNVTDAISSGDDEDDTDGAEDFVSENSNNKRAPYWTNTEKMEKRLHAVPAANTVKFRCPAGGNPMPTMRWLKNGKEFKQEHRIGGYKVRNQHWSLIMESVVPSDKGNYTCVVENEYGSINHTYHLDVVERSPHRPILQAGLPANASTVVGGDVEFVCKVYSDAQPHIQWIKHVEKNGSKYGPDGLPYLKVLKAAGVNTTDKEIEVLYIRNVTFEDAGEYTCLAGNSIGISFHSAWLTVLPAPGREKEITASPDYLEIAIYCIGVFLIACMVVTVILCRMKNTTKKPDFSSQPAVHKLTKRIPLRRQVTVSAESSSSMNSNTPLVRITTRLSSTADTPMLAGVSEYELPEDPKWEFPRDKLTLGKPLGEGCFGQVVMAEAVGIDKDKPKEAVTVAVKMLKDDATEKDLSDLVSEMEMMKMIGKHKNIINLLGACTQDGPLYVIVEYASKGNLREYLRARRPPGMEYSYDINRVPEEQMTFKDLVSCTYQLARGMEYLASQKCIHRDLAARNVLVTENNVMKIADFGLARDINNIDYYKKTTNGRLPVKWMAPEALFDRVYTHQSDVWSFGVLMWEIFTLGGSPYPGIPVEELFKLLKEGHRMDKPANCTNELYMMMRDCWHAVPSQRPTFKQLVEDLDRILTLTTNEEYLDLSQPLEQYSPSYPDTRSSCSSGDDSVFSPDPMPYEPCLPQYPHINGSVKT
T1 sequence (P00533 25-1210): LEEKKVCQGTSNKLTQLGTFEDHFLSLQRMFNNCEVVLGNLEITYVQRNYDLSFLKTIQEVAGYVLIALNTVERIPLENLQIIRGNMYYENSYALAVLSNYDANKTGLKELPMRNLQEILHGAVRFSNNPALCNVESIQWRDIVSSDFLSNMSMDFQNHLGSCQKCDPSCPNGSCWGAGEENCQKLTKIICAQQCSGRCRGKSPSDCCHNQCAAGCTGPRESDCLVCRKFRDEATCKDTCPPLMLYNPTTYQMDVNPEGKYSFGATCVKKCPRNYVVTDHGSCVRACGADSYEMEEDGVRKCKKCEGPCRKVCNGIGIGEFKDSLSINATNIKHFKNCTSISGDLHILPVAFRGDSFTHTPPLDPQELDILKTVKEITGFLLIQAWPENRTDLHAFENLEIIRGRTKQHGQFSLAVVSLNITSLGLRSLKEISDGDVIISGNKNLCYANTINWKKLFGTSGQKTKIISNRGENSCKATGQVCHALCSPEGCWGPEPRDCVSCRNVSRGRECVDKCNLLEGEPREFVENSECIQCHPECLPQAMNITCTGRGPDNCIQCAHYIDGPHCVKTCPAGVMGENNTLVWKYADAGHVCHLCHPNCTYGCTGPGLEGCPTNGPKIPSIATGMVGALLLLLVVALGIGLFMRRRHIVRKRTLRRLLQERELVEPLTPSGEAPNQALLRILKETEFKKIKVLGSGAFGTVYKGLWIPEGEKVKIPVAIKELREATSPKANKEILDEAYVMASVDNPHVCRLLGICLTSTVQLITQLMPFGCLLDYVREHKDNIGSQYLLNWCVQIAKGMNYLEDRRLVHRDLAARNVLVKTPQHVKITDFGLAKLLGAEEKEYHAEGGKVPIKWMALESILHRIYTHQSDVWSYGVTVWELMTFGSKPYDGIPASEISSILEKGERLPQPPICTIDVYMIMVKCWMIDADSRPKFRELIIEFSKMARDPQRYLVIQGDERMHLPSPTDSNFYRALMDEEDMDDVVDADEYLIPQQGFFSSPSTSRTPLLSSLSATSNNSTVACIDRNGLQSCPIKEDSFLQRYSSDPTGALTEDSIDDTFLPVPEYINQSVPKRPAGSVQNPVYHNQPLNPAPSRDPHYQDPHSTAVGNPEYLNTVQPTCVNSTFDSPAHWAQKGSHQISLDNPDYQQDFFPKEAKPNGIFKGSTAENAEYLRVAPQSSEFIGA
Procedure for H1299 cells: Inhibition of cell growth by compounds was measured using MTT assay (Mosmann, T., Journal of Immunological Methods, 1983, 65, 55-63). Tumor cell lines were purchased from ATCC (American Type Culture Collection, Manassas, Va.). All cell lines were maintained in RPMI 1640 (Hyclone) supplemented with 10% fetal bovine serum (FBS, Hyclone), glutamine (2 mM, Hyclone), and antibiotics (penicillin 100 U/mL and streptomycin 50 μg/mL) at 37° C. in a humidified atmosphere of 5% CO2 in air. Taxol (as a positive control, Sigma) and compounds were dissolved in DMSO (Sigma), and the final concentration of DMSO in the medium was 1%. Tumor cells were plated in 96-well plates at densities of about 4000 cells/well of a 96-well plate and allowed to adhere/grow for 24 h. They were then treated with various concentrations of drug for 72 h. […] The number of cells remaining after 72 h was compared to the number of viable cells at the time of compound addition by measuring the absorbance at 570 nm, allowing for the calculation of growth inhibition.
All concentrations of compounds were tested in triplicate and controls were averaged over 4 wells. IC50 was calculated by plotting the concentration of compound vs the percentage of inhibition in treated wells using GraphPad Prism 5. […]

In the case of `C=CC(=O)Nc1cccc(-c2cccc3cnc(Nc4ccc(N5CCN(C(C)=O)CC5)cc4)nc23)c1` [Example C032, N-(3-(2-((4-(4-acetylpiperazin-1-yl)phenyl)amino)quinazolin-8-yl)phenyl)acrylamide], the IC50 at EGFR (ErbB1) was 100 to 500 nM.

For `C=CC(=O)Nc1cccc(-c2cccc3cnc(Nc4ccc(N5CCN(C)CC5)cc4F)nc23)c1` [Example C044, N-(3-(2-((2-fluoro-4-(4-methylpiperazin-1-yl)phenyl)amino)quinazolin-8-yl)phenyl)acrylamide], the IC50 at FGFR1 and at KDR (VEGFR2) was 100 to 500 nM each time. Take `C=CC(=O)Nc1cccc(-c2cccc3cnc(Nc4ccc(N5CCN(CCO)CC5)cc4)nc23)c1` [Example C059, N-(3-(2-((4-(4-(2-hydroxyethyl)piperazin-1-yl)phenyl)amino)quinazolin-8-yl)phenyl)acrylamide]: the IC50 on FGFR2 was 100 to 500 nM. With `C=CC(=O)Nc1cccc(-c2cccc3cnc(Nc4ccc(OC5CCN(C)CC5F)cc4)nc23)c1` (centres unmarked) [Example C079, N-(3-(2-((4-((3-fluoro-1-methylpiperidin-4-yl)oxy)phenyl)amino)quinazolin-8-yl)phenyl)acrylamide], on EGFR (ErbB1), the IC50 was 100 to 500 nM. On to `C=CC(=O)Nc1cccc(-c2cccc3cnc(Nc4ccc(N5CCN(C)CC5)c(C(N)=O)c4)nc23)c1` [Example C085, 5-((8-(3-acrylamidophenyl)quinazolin-2-yl)amino)-2-(4-methylpiperazin-1-yl)benzamide], for which, on EGFR (ErbB1), the IC50 lay within 100 to 500 nM. Turning to `C=CC(=O)Nc1cccc(-c2cccc3cnc(Nc4ccc(OCCO)cc4)nc23)c1` [Example C108, N-(3-(2-((4-(2-hydroxyethoxy)phenyl)amino)quinazolin-8-yl)phenyl)acrylamide], the IC50 at EGFR (ErbB1) lay in the range of 100 to 500 nM.

As for `C=CC(=O)Nc1cccc(-c2cccc3cnc(Nc4cc(F)c(N5CCN(C)CC5)c(F)c4)nc23)c1` [Example C146, N-(3-(2-((3,5-difluoro-4-(4-methylpiperazin-1-yl)phenyl)amino)quinazolin-8-yl)phenyl)acrylamide], the IC50 with H1299 cells was below 100 nM. On to `C=CC(=O)Nc1cccc(-c2cccc3cnc(Nc4ccc(N5CCN(CCO)CC5)cc4F)nc23)c1` [Example C147, N-(3-(2-((2-fluoro-4-(4-(2-hydroxyethyl)piperazin-1-yl)phenyl)amino)quinazolin-8-yl)phenyl)acrylamide], for which the IC50 at FGFR1, at FGFR2 and at KDR (VEGFR2) was 100 to 500 nM throughout. For the compound `C=CC(=O)Nc1cccc(-c2cccc3cnc(Nc4ccc(N5CCN(CCO)CC5)c(F)c4F)nc23)c1` [Example C151, N-(3-(2-((2,3-difluoro-4-(4-(2-hydroxyethyl)piperazin-1-yl)phenyl)amino)quinazolin-8-yl)phenyl)acrylamide], the IC50 on FGFR1, on FGFR2 and at KDR (VEGFR2) was 100 to 500 nM throughout.
